# According to patent US20210000814A1, “RIMEGEPANT FOR CGRP RELATED DISORDERS” (Biohaven Pharmaceutical Holding Company Ltd., priority 2018, published 2021):
# Tested on: subjects with Acute Migraines
# Assay: BHV3000-303 Phase 3 trial, rimegepant ODT, acute treatment of migraine: efficacy
# Type: in vivo, human
# Details: Study 303; single dose
# Protocol: Clinical Trial—BHV3000-303: Phase 3: Double-Blind, Randomized, Placebo-Controlled, Safety and Efficacy Trial of BHV-3000 (Rimegepant) Orally Discintegrating Tablet (ODT) for the Acute Treatment of Migraine (ClinicalTrials.gov Identifier: NCT03461757) • A phase 3 clinical study was conducted with 1812 participants, as follows. The purpose of this study is to compare the efficacy of BHV-3000 (rimegepant ODT) versus placebo in subjects with Acute Migraines. […] Pain freedom of rimegepant compared with placebo in the acute treatment of migraine will be measured using the number of evaluable subjects that report no pain at 2 hours post-dose. [Time Frame: Two hours post dose] will be measured on a 4 point Likert scale (0=none, 1=mild, 2=moderate, 3=severe) 2. Freedom from the most bothersome symptom (MBS) of rimegepant compared with placebo will be measured using the number of evaluable subjects that report the absence of their MBS at 2 hours post-dose. […] The MBS (nausea, phonophobia or photophobia) will measured using a binary scale (0=absent, 1=present). […] To measure rimegepant compared to placebo on the probability of requiring rescue medication will be assessed using the number of subjects that take rescue medication within […] administration of study medication (BHV3000 or placebo). […]
structure (smiles),measurement,value
"N[C@@H]1c2cccnc2[C@H](OC(=O)N2CCC(n3c(=O)[nH]c4ncccc43)CC2)CC[C@H]1c1cccc(F)c1F [Rimegepant, [(55,65,9R)-5-amino-6-(2,3-difluorophenyl)-6,7,8,9-tetrahydro-5H-cyclohepta[b]pyridin-9-yl]4-(2-oxo-3H-imidazo[4,5-b]pyridin-1-yl)piperidine-1-carboxylate]","clinical benefit through 48 hours on pain relief, pain freedom, MBS, functional disability versus placebo",Lasting clinical benefit
